Data from EP4806891A1 (Kangbaida (Sichuan) Biotechnology Co., Ltd., priority 2023, dated 2025).

molecular target: T1, HEK-Blue-hTLR9 cells (Homo sapiens, UniProt Q9NR96); assay: HEK-Blue-hTLR9 cell inhibition assay; format: cell-based; details: ODN2006 1 µM, 16 h, OD 620 nm, read-out: TLR9 IC50
T1 construct: expressed in transfected cells; host or cells: HEK-Blue-hTLR9 cells (HEK293-derived reporter line)
T1 sequence (Q9NR96 26-1032): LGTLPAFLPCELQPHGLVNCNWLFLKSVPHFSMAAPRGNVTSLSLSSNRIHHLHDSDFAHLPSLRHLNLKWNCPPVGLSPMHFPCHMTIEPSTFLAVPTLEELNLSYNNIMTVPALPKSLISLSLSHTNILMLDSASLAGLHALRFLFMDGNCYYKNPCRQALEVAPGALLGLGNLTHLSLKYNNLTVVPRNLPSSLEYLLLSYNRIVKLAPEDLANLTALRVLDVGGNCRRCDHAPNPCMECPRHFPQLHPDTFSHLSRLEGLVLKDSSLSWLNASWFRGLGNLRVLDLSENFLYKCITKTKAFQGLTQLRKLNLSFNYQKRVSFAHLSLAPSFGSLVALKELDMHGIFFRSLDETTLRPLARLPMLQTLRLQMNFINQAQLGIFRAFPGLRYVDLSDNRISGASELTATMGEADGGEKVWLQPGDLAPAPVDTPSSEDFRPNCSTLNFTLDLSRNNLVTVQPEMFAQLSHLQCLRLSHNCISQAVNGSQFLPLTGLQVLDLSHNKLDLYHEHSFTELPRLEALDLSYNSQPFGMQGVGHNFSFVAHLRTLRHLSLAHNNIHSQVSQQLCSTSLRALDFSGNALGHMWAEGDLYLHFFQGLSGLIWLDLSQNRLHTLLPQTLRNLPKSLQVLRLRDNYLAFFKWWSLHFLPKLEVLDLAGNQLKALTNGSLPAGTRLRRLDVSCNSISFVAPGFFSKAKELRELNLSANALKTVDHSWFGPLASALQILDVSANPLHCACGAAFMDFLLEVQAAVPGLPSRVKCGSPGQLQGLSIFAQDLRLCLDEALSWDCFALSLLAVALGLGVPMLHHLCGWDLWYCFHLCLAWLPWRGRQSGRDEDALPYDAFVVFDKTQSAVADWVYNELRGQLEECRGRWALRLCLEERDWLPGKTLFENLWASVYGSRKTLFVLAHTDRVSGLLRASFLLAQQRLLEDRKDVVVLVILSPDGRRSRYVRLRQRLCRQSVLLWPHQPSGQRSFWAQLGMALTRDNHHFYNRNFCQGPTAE
Experimental: HEK-Blue-hTLR7/8/9 cell inhibition assay
1. HEK-Blue-hTLR7/8 cells (1 × 10^4 cells/well) and HEK-Blue-hTLR9 cells (1.5 × 10^4 cells/well) were seeded in a 384-well cell culture plate, with a volume of 30 µL per well. The plate was incubated at 37°C in a 5% CO2 incubator for 4 h. 2. The compound was prepared with DMSO and diluted in DMEM medium to 10 concentrations (1:3 dilution), with final concentrations of 10000, 3333.3, 1111.1, 370.4, 123.5, 41.2, 13.7, 4.6, 1.5, and 0.5 nM; R848 was prepared with DMSO and diluted in DMEM medium, with final concentrations of 0.8 µM (HEK-Blue-hTLR7) and 3 µM (HEK-Blue-hTLR8); ODN2006 was prepared with endotoxin-free water and diluted in DMEM medium, with a final concentration of 1 µM. 3. Cells treated with DMSO were used as the blank control group, while cells treated solely with Resiquimod (R848) were used as the positive control group for HEK-Blue-hTLR7/8, and cells treated solely with ODN2006 were used as the positive control group for HEK-Blue-hTLR9. Cells treated with the test compound together with R848 or ODN2006 were used as the test group. Two parallel wells were set for each group and were placed at 37°C in a 5% CO2 incubator for incubation. 4. After being incubated for 4 h, the 384-well plate of HEK-Blue-hTLR7/8 was taken out from the incubator, and R848 alone or both R848 and the diluted compound were separately added into each well. The plate was placed at 37°C in a 5% CO2 incubator for incubation for 16 h; the 384-well plate of HEK-Blue-hTLR9 was taken out from the incubator, and ODN2006 alone or both ODN2006 and the diluted compound were added separately to each well. The plate was incubated at 37°C in a 5% CO2 incubator for 16 h. 5. After being incubated for 16 h, the 384-well plate was removed from the incubator and centrifuged at 1000 rpm for 1 minute. The optical density value of each well at 620 nm was measured using a multifunctional microplate reader. 6. The cell inhibition rate was calculated as (1-(OD620 test group-OD620 blank group)/(OD620 positive group-OD620 blank group))×100%, and the half maximal inhibitory concentration (IC50) was calculated through curve fitting. Table 1: Activity of the compounds of the present disclosure in HEK-Blue-hTLR7/8/9 cellular assays

Row | SMILES | IC50
1 | CN(C)[C@H]1CC[C@H](c2nnc([C@]34CN(c5ccc(C#N)c6ncccc56)C[C@@]3(C(F)(F)F)C4)o2)CC1 [Compound 21, 5-((1S,5R)-1-(5-((1R,4S)-4-(dimethylamino)cyclohexyl)-1,3,4-oxadiazol-2-yl)-5-(trifluoromethyl)-3-azabicyclo[3.1.0]hexan-3-yl)quinoline-8-carbonitrile] | > 1000 nM
2 | N#Cc1ccc(N2C[C@]3(c4nnc(C5=CCNC5)o4)C[C@]3(C(F)(F)F)C2)c2cccnc12 [Compound 22, 5-((1S,5R)-1-(5-(2,5-dihydro-1H-pyrrol-3-yl)-1,3,4-oxadiazol-2-yl)-5-(trifluoromethyl)-3-azabicyclo[3.1.0]hexan-3-yl)quinoline-8-carbonitrile] | > 10000 nM
3 | CN1CCC(n2cnc([C@]34CN(c5ccc(C#N)c6ncccc56)C[C@@]3(C(F)(F)F)C4)n2)CC1 [Compound 23, 5-((1S,5R)-1-(1-(1-methylpiperidin-4-yl)-1H-1,2,4-triazol-3-yl)-5-(trifluoromethyl)-3-azabicyclo[3.1.0]hexan-3-yl)quinoline-8-carbonitrile] | > 1000 nM
4 | N#Cc1ccc(N2C[C@]3(c4nnc(C#CCN5CCOCC5)o4)C[C@]3(C(F)(F)F)C2)c2cccnc12 [Compound 24, 5-((1S,5R)-1-(5-(3-morpholinoprop-1-yn-1-yl)-1,3,4-oxadiazol-2-yl)-5-(trifluoromethyl)-3-azabicyclo[3.1.0]hexan-3-yl)quinoline-8-carbonitrile] | > 10000 nM
5 | CN(C)CC#Cc1nnc([C@]23CN(c4ccc(C#N)c5ncccc45)C[C@@]2(C(F)(F)F)C3)o1 [Compound 25, 5-((1S,5R)-1-(5-(3-(dimethylamino)prop-1-yn-1-yl)-1,3,4-oxadiazol-2-yl)-5-(trifluoromethyl)-3-azabicyclo[3.1.0]hexan-3-yl)quinoline-8-carbonitrile] | < 1000 nM
6 | CC1(C)CC(Cc2nnc([C@]34CN(c5ccc(C#N)c6ncccc56)C[C@@]3(C(F)(F)F)C4)o2)CC(C)(C)N1 [Compound 26, 5-((1S,5R)-1-(5-((2,2,6,6-tetramethylpiperidin-4-yl)methyl)-1,3,4-oxadiazol-2-yl)-5-(trifluoromethyl)-3-azabicyclo[3.1.0]hexan-3-yl)quinoline-8-carbonitrile] | > 1000 nM
7 | N#Cc1ccc(N2C[C@]3(c4nnc(N5CCOCC5)o4)C[C@]3(C(F)(F)F)C2)c2cccnc12 [Compound 27, 5-((1S,5R)-1-(5-morpholino-1,3,4-oxadiazol-2-yl)-5-(trifluoromethyl)-3-azabicyclo[3.1.0]hexan-3-yl)quinoline-8-carbonitrile] | > 10000 nM
8 | CN1CC(Cc2nnc([C@]34CN(c5ccc(C#N)n6ncc(F)c56)C[C@@]3(C(F)(F)F)C4)o2)C1 [Compound 30, 3-fluoro-4-((1S,5R)-1-(5-((1-methylazetidin-3-yl)methyl)-1,3,4-oxadiazol-2-yl)-5-(trifluoromethyl)-3-azabicyclo[3.1.0]hexan-3-yl)pyrazolo[1,5-a]pyridine-7-carbonitrile] | > 1000 nM
9 | N#Cc1ccc(N2C[C@]3(c4nnc(C5(F)CNC5)o4)C[C@]3(C(F)(F)F)C2)c2cccnc12 [Compound 32, 5-((1S,5R)-1-(5-(3-Fluoroazetidin-3-yl)-1,3,4-oxadiazol-2-yl)-5-(trifluoromethyl)-3-azabicyclo[3.1.0]hexan-3-yl)quinoline-8-carbonitrile] | > 10000 nM
10 | N#Cc1ccc(N2C[C@]3(c4nnc(C5CCNCC5F)o4)C[C@]3(C(F)(F)F)C2)c2cccnc12 (some centres unmarked) [Compound 33] | > 1000 nM
11 | CN1CCC(c2nnc([C@]34CN(c5ccc(C#N)c6ncccc56)C[C@@]3(C(F)(F)F)C4)o2)CC1=O (some centres unmarked) [Compound 34] | > 10000 nM
12 | N#Cc1ccc(N2C[C@]3(c4nnc(CC5CNC5)o4)C[C@]3(C(F)(F)F)C2)c2cccnc12 [Compound 35, 5-((1S,5R)-1-(5-(azetidin-3-ylmethyl)-1,3,4-oxadiazol-2-yl)-5-(trifluoromethyl)-3-azabicyclo[3.1.0]hexan-3-yl)quinoline-8-carbonitrile] | > 1000 nM
13 | CN1CC(c2nnc([C@]34CN(c5ccc(C#N)c6ncccc56)C[C@@]3(C(F)(F)F)C4)o2)C1 [Compound 39, 5-((1S,5R)-1-(5-(1-methylazetidin-3-yl)-1,3,4-oxadiazol-2-yl)-5-(trifluoromethyl)-3-azabicyclo[3.1.0]hexan-3-yl)quinoline-8-carbonitrile] | > 1000 nM
14 | CN(C)Cc1nnc([C@]23CN(c4ccc(C#N)c5ncccc45)C[C@@]2(C(F)(F)F)C3)o1 [Compound 42, 5-((1S,5R)-1-(5-((dimethylamino)methyl)-1,3,4-oxadiazol-2-yl)-5-(trifluoromethyl)-3-azabicyclo[3.1.0]hexan-3-yl)quinoline-8-carbonitrile] | > 10000 nM

Now from value to compound:

Row | IC50 | SMILES
15 | > 1000 nM | CN1CCC(Oc2nnc([C@]34CN(c5ccc(C#N)n6ncc(F)c56)C[C@@]3(C(F)(F)F)C4)o2)CC1 [Compound 31, 3-fluoro-4-((1S,5R)-1-(5-((1-methylpiperidin-4-yl)oxy)-1,3,4-oxadiazol-2-yl)-5-(trifluoromethyl)-3-azabicyclo[3.1.0]hexan-3-yl)pyrazolo[1,5-a]pyridine-7-carbonitrile]
16 | > 1000 nM | CN1CC(Cc2nnc([C@]34CN(c5ccc(C#N)c6ncccc56)C[C@@]3(C(F)(F)F)C4)o2)C1 [Compound 36, 5-((1S,5R)-1-(5-((1-methylazetidin-3-yl)methyl)-1,3,4-oxadiazol-2-yl)-5-(trifluoromethyl)-3-azabicyclo[3.1.0]hexan-3-yl)quinoline-8-carbonitrile]
17 | > 1000 nM | CN1CCC(Cc2nnc([C@]34CN(c5ccc(C#N)c6ncccc56)C[C@@]3(C(F)(F)F)C4)o2)CC1 [Compound 37, 5-((1S,5R)-1-(5-((1-methylpiperidin-4-yl)methyl)-1,3,4-oxadiazol-2-yl)-5-(trifluoromethyl)-3-azabicyclo[3.1.0]hexan-3-yl)quinoline-8-carbonitrile]
18 | > 10000 nM | CN1CCC(Cc2nnc([C@]34CN(c5ccc(C#N)c6ncccc56)C[C@@]3(C(F)(F)F)C4)n2C)CC1 [Compound 38, 5-((1S,5R)-1-(4-methyl-5-((1-methylpiperidin-4-yl)methyl)-4H-1,2,4-triazol-3-yl)-5-(trifluoromethyl)-3-azabicyclo[3.1.0]hexan-3-yl)quinoline-8-carbonitrile]
19 | > 10000 nM | N#Cc1ccc(N2C[C@]3(c4nnc(CN5CCOCC5)o4)C[C@]3(C(F)(F)F)C2)c2cccnc12 [Compound 40, 5-((1S,5R)-1-(5-(morpholinomethyl)-1,3,4-oxadiazol-2-yl)-5-(trifluoromethyl)-3-azabicyclo[3.1.0]hexan-3-yl)quinoline-8-carbonitrile]
20 | > 10000 nM | N#Cc1ccc(N2C[C@]3(c4nnc(CN5CCCC5)o4)C[C@]3(C(F)(F)F)C2)c2cccnc12 [Compound 41, 5-((1S,5R)-1-(5-(Pyrrolidin-1-ylmethyl)-1,3,4-oxadiazol-2-yl)-5-(trifluoromethyl)-3-azabicyclo[3.1.0]hexan-3-yl)quinoline-8-carbonitrile]
